Assay results taken from the kinase profiling compilation of Christmann-Franck et al. (2016).
“And” between values parts separate entries of the source, which are not always exact repeats. Identical values can stand only once.

Tests used:
Test in all cases: radiometric filter-binding kinase assay, Kinase HotSpot
Settings in all cases: compound 0.5 µM; ATP 10 µM
MAP4K4 (human) = MAP4K4 (human) (UniProt O95819)
MARK4 (human) = MARK4 (human) (UniProt Q96L34)
LRRK2 (human) = LRRK2 (human) (UniProt Q5S007)
BRSK1 (human) = BRSK1 (human) (UniProt Q8TDC3)
FGFR4 (human) = FGFR4 (human) (UniProt P22455)
MAP3K10 (human) = MAP3K10 (human) (UniProt Q02779)
CDK6 CCND3 (human) = CDK6 CCND3 (human) (UniProt P30281+Q00534)
IRAK1 (human) = IRAK1 (human) (UniProt P51617)
AKT1 (human) = AKT1 (human) (UniProt P31749)
PDGFRA (human) = PDGFRA (human) (UniProt P16234)
ACVRL1 (human) = ACVRL1 (human) (UniProt P37023)
PRKG2 (human) = PRKG2 (human) (UniProt Q13237)
NTRK1 (human) = NTRK1 (human) (UniProt P04629)
LTK (human) = LTK (human) (UniProt P29376)
FYN (human) = FYN (human) (UniProt P06241)
Chain of FYN (human) (P06241 whole entry, looked up): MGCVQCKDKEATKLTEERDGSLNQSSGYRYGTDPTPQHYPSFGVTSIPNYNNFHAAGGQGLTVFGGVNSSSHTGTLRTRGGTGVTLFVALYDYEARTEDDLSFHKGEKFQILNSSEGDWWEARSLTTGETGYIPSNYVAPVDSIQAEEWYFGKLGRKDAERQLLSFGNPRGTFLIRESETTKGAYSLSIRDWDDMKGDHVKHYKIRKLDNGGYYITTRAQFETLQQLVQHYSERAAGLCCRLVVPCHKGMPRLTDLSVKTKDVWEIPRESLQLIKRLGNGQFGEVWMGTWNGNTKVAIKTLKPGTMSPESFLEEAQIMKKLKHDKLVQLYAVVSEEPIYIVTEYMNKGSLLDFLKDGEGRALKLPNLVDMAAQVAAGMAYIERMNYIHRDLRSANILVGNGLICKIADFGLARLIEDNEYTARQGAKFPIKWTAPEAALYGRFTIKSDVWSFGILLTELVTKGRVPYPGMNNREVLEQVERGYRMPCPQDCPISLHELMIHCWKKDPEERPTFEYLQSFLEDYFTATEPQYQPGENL

PRKD3 (human) = PRKD3 (human) (UniProt O94806)
GSK3B (human) = GSK3B (human) (UniProt P49841)
DDR2 (human) = DDR2 (human) (UniProt Q16832)
MAPK14 (human) = MAPK14 (human) (UniProt Q16539)
MAPKAPK5 (human) = MAPKAPK5 (human) (UniProt Q8IW41)
PDPK1 (human) = PDPK1 (human) (UniProt O15530)
MAP2K2 (human) = MAP2K2 (human) (UniProt P36507)
BLK (human) = BLK (human) (UniProt P51451)
CSNK1A1 (human) = CSNK1A1 (human) (UniProt P48729)
CDC42BPA (human) = CDC42BPA (human) (UniProt Q5VT25)
EPHA1 (human) = EPHA1 (human) (UniProt P21709)
PIM1 (human) = PIM1 (human) (UniProt P11309)
WNK3 (human) = WNK3 (human) (UniProt Q9BYP7)
Chain of WNK3 (human) (Q9BYP7 whole entry, looked up): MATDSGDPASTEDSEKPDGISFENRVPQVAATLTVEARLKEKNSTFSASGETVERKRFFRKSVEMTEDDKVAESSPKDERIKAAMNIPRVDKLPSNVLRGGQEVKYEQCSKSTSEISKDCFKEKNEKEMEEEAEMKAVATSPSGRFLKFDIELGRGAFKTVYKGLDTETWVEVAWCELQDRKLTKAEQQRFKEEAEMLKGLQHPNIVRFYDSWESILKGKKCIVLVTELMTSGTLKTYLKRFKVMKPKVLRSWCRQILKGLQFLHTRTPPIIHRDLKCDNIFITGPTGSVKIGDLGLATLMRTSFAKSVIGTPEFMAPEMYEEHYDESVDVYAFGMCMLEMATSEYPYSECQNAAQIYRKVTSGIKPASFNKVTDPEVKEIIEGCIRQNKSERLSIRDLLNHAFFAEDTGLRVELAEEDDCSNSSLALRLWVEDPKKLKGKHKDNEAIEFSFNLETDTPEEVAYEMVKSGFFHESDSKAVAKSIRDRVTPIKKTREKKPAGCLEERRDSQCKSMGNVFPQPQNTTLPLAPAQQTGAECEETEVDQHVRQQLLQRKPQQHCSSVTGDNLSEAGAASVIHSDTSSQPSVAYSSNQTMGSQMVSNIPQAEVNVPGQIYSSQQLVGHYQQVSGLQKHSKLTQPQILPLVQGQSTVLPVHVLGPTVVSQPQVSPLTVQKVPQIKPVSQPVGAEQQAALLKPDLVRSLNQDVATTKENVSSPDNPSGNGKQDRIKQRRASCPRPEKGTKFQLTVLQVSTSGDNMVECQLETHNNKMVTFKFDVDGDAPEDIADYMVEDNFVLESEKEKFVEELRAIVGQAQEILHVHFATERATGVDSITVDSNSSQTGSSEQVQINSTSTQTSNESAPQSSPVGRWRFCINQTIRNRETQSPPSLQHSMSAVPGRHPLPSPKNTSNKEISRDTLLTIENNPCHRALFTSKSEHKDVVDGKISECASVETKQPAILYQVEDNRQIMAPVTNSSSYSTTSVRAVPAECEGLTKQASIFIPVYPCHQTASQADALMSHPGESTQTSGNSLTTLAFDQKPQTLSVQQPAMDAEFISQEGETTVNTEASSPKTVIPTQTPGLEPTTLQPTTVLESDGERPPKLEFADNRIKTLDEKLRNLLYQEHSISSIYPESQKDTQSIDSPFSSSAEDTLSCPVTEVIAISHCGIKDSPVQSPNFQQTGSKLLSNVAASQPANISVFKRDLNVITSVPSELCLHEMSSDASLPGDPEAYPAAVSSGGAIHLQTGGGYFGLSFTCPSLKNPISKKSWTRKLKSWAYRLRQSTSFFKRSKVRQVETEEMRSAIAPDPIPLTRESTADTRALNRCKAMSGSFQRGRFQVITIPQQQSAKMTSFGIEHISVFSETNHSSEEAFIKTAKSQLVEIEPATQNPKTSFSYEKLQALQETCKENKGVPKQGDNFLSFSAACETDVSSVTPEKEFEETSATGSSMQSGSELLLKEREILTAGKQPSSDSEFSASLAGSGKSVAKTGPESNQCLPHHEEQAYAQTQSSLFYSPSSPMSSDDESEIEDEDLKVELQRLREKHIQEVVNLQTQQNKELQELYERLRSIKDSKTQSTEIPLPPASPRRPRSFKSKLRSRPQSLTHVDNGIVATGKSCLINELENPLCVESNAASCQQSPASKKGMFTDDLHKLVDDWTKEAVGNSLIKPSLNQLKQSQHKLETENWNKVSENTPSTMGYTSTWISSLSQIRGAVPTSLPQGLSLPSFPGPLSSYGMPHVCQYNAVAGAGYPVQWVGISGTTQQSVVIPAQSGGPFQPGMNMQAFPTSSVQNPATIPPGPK

EPHB3 (human) = EPHB3 (human) (UniProt P54753)
PKN1 (human) = PKN1 (human) (UniProt Q16512)
STK3 (human) = STK3 (human) (UniProt Q13188)
RPS6KB1 (human) = RPS6KB1 (human) (UniProt P23443)
Chain of RPS6KB1 (human) (P23443 whole entry, looked up): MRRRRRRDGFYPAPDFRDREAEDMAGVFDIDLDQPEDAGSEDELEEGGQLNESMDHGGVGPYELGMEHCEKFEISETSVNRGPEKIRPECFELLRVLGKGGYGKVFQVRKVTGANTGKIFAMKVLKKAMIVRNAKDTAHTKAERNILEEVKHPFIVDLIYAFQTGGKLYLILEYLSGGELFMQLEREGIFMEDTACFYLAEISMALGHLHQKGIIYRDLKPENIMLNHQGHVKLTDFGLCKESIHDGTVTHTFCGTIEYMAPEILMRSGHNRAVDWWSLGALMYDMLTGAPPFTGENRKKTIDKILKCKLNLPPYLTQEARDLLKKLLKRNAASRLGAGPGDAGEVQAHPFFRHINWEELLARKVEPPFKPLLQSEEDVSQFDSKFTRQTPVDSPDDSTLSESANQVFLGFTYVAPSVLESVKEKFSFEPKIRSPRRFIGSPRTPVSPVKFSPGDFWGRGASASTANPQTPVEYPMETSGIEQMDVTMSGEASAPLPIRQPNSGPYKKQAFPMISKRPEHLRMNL

DYRK1A (human) = DYRK1A (human) (UniProt Q13627)
PASK (human) = PASK (human) (UniProt Q96RG2)
MAP3K11 (human) = MAP3K11 (human) (UniProt Q16584)
EPHB2 (human) = EPHB2 (human) (UniProt P29323)
RPS6KA5 KD2 (human) = RPS6KA5 KD2 (human) (UniProt O75582)
NEK1 (human) = NEK1 (human) (UniProt Q96PY6)
BRSK2 (human) = BRSK2 (human) (UniProt Q8IWQ3)
Chain of BRSK2 (human) (Q8IWQ3 whole entry, looked up): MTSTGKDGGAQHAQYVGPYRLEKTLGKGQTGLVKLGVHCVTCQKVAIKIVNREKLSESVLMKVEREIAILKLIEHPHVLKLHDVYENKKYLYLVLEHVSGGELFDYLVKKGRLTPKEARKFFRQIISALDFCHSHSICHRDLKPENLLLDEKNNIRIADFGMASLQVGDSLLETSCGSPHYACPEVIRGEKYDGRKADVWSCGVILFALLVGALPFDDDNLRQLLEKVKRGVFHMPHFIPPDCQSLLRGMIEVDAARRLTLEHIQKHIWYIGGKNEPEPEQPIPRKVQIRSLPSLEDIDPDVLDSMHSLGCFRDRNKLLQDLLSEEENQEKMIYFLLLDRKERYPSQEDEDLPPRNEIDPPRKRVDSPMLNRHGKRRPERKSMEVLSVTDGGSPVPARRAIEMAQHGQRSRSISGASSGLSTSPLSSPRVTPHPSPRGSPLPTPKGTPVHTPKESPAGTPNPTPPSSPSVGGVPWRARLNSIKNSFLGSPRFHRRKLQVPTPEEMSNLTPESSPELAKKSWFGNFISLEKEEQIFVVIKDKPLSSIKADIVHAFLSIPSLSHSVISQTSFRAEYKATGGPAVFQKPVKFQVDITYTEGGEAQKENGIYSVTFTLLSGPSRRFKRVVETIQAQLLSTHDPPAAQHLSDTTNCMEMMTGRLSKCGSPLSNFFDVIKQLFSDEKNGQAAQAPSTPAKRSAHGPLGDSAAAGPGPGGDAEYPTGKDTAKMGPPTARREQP

CDK3 CCNE1 (human) = CDK3 CCNE1 (human) (UniProt Q00526+P24864)
ALK (human) = ALK (human) (UniProt Q9UM73)
LYN (human) = LYN (human) (UniProt P07948)

Chain of MAP4K4 (human) (O95819 whole entry, looked up): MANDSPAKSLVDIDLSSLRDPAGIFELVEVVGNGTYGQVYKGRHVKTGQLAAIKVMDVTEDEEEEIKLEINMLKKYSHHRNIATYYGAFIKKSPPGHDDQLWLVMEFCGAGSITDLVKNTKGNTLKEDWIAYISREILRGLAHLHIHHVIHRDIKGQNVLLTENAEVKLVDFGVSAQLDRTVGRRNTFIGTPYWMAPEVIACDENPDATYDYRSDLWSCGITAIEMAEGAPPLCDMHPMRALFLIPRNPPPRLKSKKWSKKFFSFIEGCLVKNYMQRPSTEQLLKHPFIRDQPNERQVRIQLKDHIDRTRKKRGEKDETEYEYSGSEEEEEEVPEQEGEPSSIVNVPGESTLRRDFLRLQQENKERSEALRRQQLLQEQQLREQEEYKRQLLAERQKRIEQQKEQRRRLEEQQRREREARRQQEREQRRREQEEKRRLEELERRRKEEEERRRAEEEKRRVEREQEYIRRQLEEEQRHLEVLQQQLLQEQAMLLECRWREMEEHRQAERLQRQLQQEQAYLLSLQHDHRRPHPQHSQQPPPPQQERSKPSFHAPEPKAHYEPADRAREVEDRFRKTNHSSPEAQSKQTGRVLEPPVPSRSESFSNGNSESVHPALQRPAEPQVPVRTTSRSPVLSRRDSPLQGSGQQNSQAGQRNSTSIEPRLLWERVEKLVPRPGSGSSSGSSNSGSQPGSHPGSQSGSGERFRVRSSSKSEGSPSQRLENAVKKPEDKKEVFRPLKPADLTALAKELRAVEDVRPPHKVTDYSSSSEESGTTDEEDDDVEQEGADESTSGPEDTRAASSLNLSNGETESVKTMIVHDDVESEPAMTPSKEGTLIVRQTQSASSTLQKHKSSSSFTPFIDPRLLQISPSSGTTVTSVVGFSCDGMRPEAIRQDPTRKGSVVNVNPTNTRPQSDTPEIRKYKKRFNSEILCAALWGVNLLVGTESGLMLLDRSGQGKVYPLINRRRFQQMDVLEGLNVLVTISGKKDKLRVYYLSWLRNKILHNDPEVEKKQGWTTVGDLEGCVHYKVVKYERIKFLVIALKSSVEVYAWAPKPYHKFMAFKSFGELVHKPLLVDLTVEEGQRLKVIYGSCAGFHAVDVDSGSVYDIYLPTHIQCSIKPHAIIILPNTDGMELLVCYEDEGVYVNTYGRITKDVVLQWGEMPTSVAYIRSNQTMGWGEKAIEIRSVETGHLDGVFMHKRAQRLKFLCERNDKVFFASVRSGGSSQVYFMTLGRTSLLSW

SMILES: CCn1cnc2c(Nc3cccc(Cl)c3)nc(N[C@@H]3CCCC[C@@H]3N)nc21
- residual activity (MAP4K4 (human)): 72.5%
- residual activity (MARK4 (human)): 95.5%
- residual activity (LRRK2 (human)): 70%
- residual activity (BRSK1 (human)): 92.4%
- residual activity (FGFR4 (human)): 97.5%
- residual activity (MAP3K10 (human)): 92.9%
- residual activity (CDK6 CCND3 (human)): 76.9%
- residual activity (IRAK1 (human)): 81.7%
- residual activity (AKT1 (human)): 108%
- residual activity (PDGFRA (human)): 100%
- residual activity (ACVRL1 (human)): 99.9%
- residual activity (PRKG2 (human)): 74.3%
- residual activity (NTRK1 (human)): 92.9%
- residual activity (LTK (human)): 93.8%
- residual activity (FYN (human)): 48.6%
- residual activity (PRKD3 (human)): 90.6%
- residual activity (GSK3B (human)): 104%
- residual activity (DDR2 (human)): 97.2%
- residual activity (MAPK14 (human)): 100%
- residual activity (MAPKAPK5 (human)): 98.3%
- residual activity (PDPK1 (human)): 94.8%
- residual activity (MAP2K2 (human)): 107%
- residual activity (BLK (human)): 87.1%
- residual activity (CSNK1A1 (human)): 98.7%
- residual activity (CDC42BPA (human)): 93.4%
- residual activity (EPHA1 (human)): 79.6%
- residual activity (PIM1 (human)): 83.8%
- residual activity (WNK3 (human)): 92%
- residual activity (EPHB3 (human)): 92.6%
- residual activity (PKN1 (human)): 69.9%
- residual activity (STK3 (human)): 83.9%
- residual activity (RPS6KB1 (human)): 97.3%
- residual activity (DYRK1A (human)): 100%
- residual activity (PASK (human)): 88%
- residual activity (MAP3K11 (human)): 77.6%
- residual activity (EPHB2 (human)): 82.9%
- residual activity (RPS6KA5 KD2 (human)): 87.8%
- residual activity (NEK1 (human)): 95%
- residual activity (BRSK2 (human)): 94%
- residual activity (CDK3 CCNE1 (human)): 49.7%
- residual activity (ALK (human)): 92.3%

SMILES: CCN(CC)CCCCN1c2ccccc2Oc2ccc(Cl)cc21
- residual activity (MAP4K4 (human)): 104%
- residual activity (MARK4 (human)): 97.2%
- residual activity (LRRK2 (human)): 115%
- residual activity (BRSK1 (human)): 98.3%
- residual activity (FGFR4 (human)): 92.6%
- residual activity (MAP3K10 (human)): 102%
- residual activity (CDK6 CCND3 (human)): 102%
- residual activity (IRAK1 (human)): 118%
- residual activity (AKT1 (human)): 112%
- residual activity (PDGFRA (human)): 102%
- residual activity (ACVRL1 (human)): 102%
- residual activity (PRKG2 (human)): 94.4%
- residual activity (NTRK1 (human)): 99.8%
- residual activity (LTK (human)): 98.4%
- residual activity (FYN (human)): 107%
- residual activity (PRKD3 (human)): 97.1%
- residual activity (GSK3B (human)): 113%
- residual activity (DDR2 (human)): 99.4%
- residual activity (MAPK14 (human)): 95.8%
- residual activity (MAPKAPK5 (human)): 95.9%
- residual activity (PDPK1 (human)): 111%
- residual activity (MAP2K2 (human)): 88.4%
- residual activity (BLK (human)): 106%
- residual activity (LYN (human)): 105% and 115%
- residual activity (CSNK1A1 (human)): 96.1%
- residual activity (CDC42BPA (human)): 111%
- residual activity (EPHA1 (human)): 90.5%
- residual activity (WNK3 (human)): 108%
- residual activity (EPHB3 (human)): 112%
- residual activity (PKN1 (human)): 89.6%
- residual activity (STK3 (human)): 106%
- residual activity (RPS6KB1 (human)): 97.7%
- residual activity (DYRK1A (human)): 104%
- residual activity (PASK (human)): 76.6%
- residual activity (MAP3K11 (human)): 99.9%
- residual activity (EPHB2 (human)): 107%
- residual activity (RPS6KA5 KD2 (human)): 107%
- residual activity (NEK1 (human)): 101%
- residual activity (BRSK2 (human)): 107%
- residual activity (CDK3 CCNE1 (human)): 90.3%
- residual activity (ALK (human)): 106%

SMILES: Nc1nccc(-c2c(-c3ccc(F)cc3)ncn2C2CCNCC2)n1
- residual activity (MAP4K4 (human)): 76.3%
- residual activity (MARK4 (human)): 97.4%
- residual activity (LRRK2 (human)): 99.9%
- residual activity (BRSK1 (human)): 99.7%
- residual activity (FGFR4 (human)): 85.7%
- residual activity (MAP3K10 (human)): 99.8%
- residual activity (CDK6 CCND3 (human)): 95.5%
- residual activity (IRAK1 (human)): 114%
- residual activity (AKT1 (human)): 99.9%
- residual activity (PDGFRA (human)): 95.8%
- residual activity (ACVRL1 (human)): 95.6%
- residual activity (PRKG2 (human)): 97.2%
- residual activity (NTRK1 (human)): 100%
- residual activity (LTK (human)): 97.3%
- residual activity (FYN (human)): 91.1%
- residual activity (PRKD3 (human)): 37.9%
- residual activity (GSK3B (human)): 101%
- residual activity (DDR2 (human)): 107%
- residual activity (MAPKAPK5 (human)): 94%
- residual activity (PDPK1 (human)): 103%
- residual activity (MAP2K2 (human)): 105%
- residual activity (BLK (human)): 102%
- residual activity (LYN (human)): 87.5% and 97.5%
- residual activity (CSNK1A1 (human)): 2.82%
- residual activity (CDC42BPA (human)): 101%
- residual activity (EPHA1 (human)): 98.2%
- residual activity (PIM1 (human)): 97%
- residual activity (WNK3 (human)): 95.3%
- residual activity (EPHB3 (human)): 101%
- residual activity (PKN1 (human)): 96.3%
- residual activity (STK3 (human)): 103%
- residual activity (RPS6KB1 (human)): 98.2%
- residual activity (DYRK1A (human)): 96.3%
- residual activity (PASK (human)): 98.5%
- residual activity (MAP3K11 (human)): 96.3%
- residual activity (EPHB2 (human)): 103%
- residual activity (RPS6KA5 KD2 (human)): 97.9%
- residual activity (NEK1 (human)): 100%
- residual activity (BRSK2 (human)): 96.6%
- residual activity (CDK3 CCNE1 (human)): 95.5%
- residual activity (ALK (human)): 102%
